This passage reports pest or weed control and melting point results from patent US7977512B2, “Amine derivative, and production method and use thereof” (Kureha Corporation, priority 2005, dated 2011).

The structures appear in SMILES notation. Structures can show the parent of a compound that is named as a salt.

What is called melting point is the temperature, or range, at which the solid turns liquid.

For one data set, the system named is Pseudoperonospora cubensis. In words: Protection test of Pseudoperonospora cubensis on cucumber cotyledons. In kind it is in vivo. The settings on record: 144 h, spraying concentration 1000 ppm, water dispersible powder sprayed onto cucumber cotyledons (var. Sagami-Hanjiro) one day before inoculation, incidence scored six days after inoculation, read-out: Protective value. The protocol: Water dispersible powders were prepared in the same manner as in Formulation Example 2 using the compound (2a), (2aa), (2b), (2ba), (15), (16), (17), (18), (19), or (20). The each water dispersible powder was diluted with water to a predetermined concentration (1000 mg/l) and suspended. The diluted suspension was sprayed onto cucumber cotyledons (var. Sagami-Hanjiro) grown in a rectangular plastic pot (6.4 cm×6.4 cm) at 100 1/10 a. After air-drying the sprayed leaves one day, a Pseudoperonospora cubensis spore suspension was sprayed onto the leaves to inoculate, and the leaves were maintained at 25° C. under high humidity conditions. After six days from the inoculation, the incidence of Pseudoperonospora cubensis was investigated according to the following criteria. The protective value is calculated according to the following equation 1.
Protective value(%)=(1−average incidence in sprayed area/average incidence in non-sprayed area)×100 [Equation 1]
On to `CCCN(CCC)CCCCNCc1ccc(C#N)cc1` [(2a), 4-[(4-dipropylaminobutyl)amino]methylbenzonitrile], for which the pest or weed control at 1000 ppm was found to be 100%. Still for that read-out and setting: the result for `CCCN(CCC)CCCCN(C)Cc1ccc(C#N)cc1` [(2b), 4-[(4-dipropylaminobutyl)methylamino]methylbenzonitrile] reads 100%; that for `CCCN(CCC)CCCCN(Cc1ccc(Br)cc1)Cc1ccc(C#N)cc1` [(15), 4-{[(4-bromobenzyl)-(4-dipropylaminobutyl)amino]methyl}benzonitrile], 100%. On the same count and under the same terms, the value for `CCCN(CCC)CCCCN(Cc1ccc(C#N)cc1)Cc1ccc(N(CC)CC)cc1` [(16), 4-{[(4-diethylaminobenzyl)-(4-dipropylaminobutyl)amino]methyl}benzonitrile] was 100%; that for `CCCN(CCC)CCCCN(Cc1ccc(C#N)cc1)Cc1ccc(C)o1` [(17), 4-{[(4-dipropylaminobutyl)-(5-methylfuran-2-ylmethyl)amino]methyl}benzonitrile] was 100%.

On to `CCCN(CCC)CCCCN(Cc1ccc(C#N)cc1)Cc1ccc[nH]1` [(18), 4-{[(4-dipropylaminobutyl)-(1H-pyrrol-2-ylmethyl)amino]methyl}benzonitrile], for which the pest or weed control at 1000 ppm turned out to be 100%. The same measure, in the same setting: the value for `CCCN(CCC)CCCCN(Cc1ccc(C#N)cc1)Cc1ccc(OC)cc1` [(19), 4-{[(4-dipropylaminobutyl)-(4-methoxybenzyl)amino]-methyl}-benzonitrile] was 90%. As for `CCCN(CCC)CCCCN(CC(=O)OCc1ccccc1)Cc1ccc(C#N)cc1` [(20), [(4-cyanobenzyl)-(4-dipropylaminobutyl)amino]benzyl acetate], the pest or weed control at 1000 ppm was found to be 100%.

Test system in another data set: not given
Assay: not given
Settings: not given
Compound `CCCN(CCC)CCCCN(CCOC(C)=O)Cc1ccc(CN)cc1.Cl` came in with a melting point of 105 to 106 °C. `CCCN(CCC)CCCCNCc1ccc(CN)cc1.Cl` showed a melting point of 205 to 210 °C. On the same count and under the same terms, the value for `CCCN(CCC)CCCCNCc1ccc(C#N)cc1` (as salt: hydrochloride) [(2aa), 4-[(4-dipropylaminobutyl)amino]methylbenzonitrile hydrochloride] was 198 to 200 °C.
